Reference: US20230095836A1, “SUBSTITUTED 5,6-DIPHENYL-3(2H)-PYRIDAZINONES FOR USE AS FUNGICIDES” (FMC Corporation, priority 2020, published 2023)

Legend:
Type in all cases: in vivo
[1] = tested on: Puccinia recondita f. sp. tritici; assay: Test B: test solution sprayed on wheat seedlings, inoculated next day with Puccinia recondita f. sp. tritici (wheat leaf rust); disease rating (100 = 100% disease control, 0 = no control; dash = not tested)
Source text: The resulting test suspensions were then used in Tests A-F. The test solution was sprayed to the point of run-off on wheat seedlings. […] A rating of 100 indicates 100% disease control and a rating of 0 indicates no disease control (relative to the controls). A dash (—) indicates the compound was not tested.

[2] = tested on: Zymoseptoria tritici; assay: Test A: test solution sprayed on wheat seedlings, inoculated next day with Zymoseptoria tritici (wheat leaf blotch); disease rating (100 = 100% disease control, 0 = no control; dash = not tested)
Method in brief: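 Wheat seedlings sprayed to run-off with test solution, inoculated next day with Z. tritici spores, held 48 h at 24° C in saturated atmosphere, then 17 days at 20° C before rating. Scores are % disease control relative to controls (100 = full control, 0 = none).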

[3] = tested on: Botrytis cinerea; assay: Test E: test suspension sprayed on tomato seedlings, inoculated next day with Botrytis cinerea (tomato Botrytis); visual disease rating (100 = 100% disease control, 0 = no control; dash = not tested)
Method in brief: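 Tomato seedlings were sprayed to run-off and inoculated next day with Botrytis cinerea spores. They were held 48 h at 20° C in saturated humidity, then 3 days at 24° C. Disease control was rated visually against controls (100 = full, 0 = none).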

[4] = tested on: Phakopsora pachyrhizi; assay: Test D: test solution sprayed on soybean seedlings, inoculated next day with Phakopsora pachyrhizi (Asian soybean rust); visual disease rating (100 = 100% disease control, 0 = no control; dash = not tested)
Method in brief: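 Compounds predissolved in acetone (3% of final volume), suspended at ppm concentrations in 50/50 acetone/water with 250 ppm PEG400, sprayed to run-off on soybean seedlings. Inoculated next day with spores, 24 h saturated atmosphere at 22 °C, then 8 days growth chamber at 22 °C; visual rating, 100 = full control.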

[5] = tested on: Blumeria graminis f. sp. tritici; assay: Test C: test suspension sprayed on wheat seedlings, inoculated next day with Blumeria graminis f. sp. tritici (wheat powdery mildew); visual disease rating (100 = 100% disease control, 0 = no control; dash = not tested)
Method in brief: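 Wheat seedlings were sprayed to run-off with test suspension, then dusted next day with Blumeria graminis f. sp. tritici spores. After 8 days at 20 °C in a growth chamber, disease was rated visually as percent control relative to untreated controls.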

[6] = tested on: Alternaria solani; assay: Test F: test suspension sprayed on tomato seedlings, inoculated next day with Alternaria solani (tomato early blight); visual disease rating (100 = 100% disease control, 0 = no control; dash = not tested)
Method in brief: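 Tomato seedlings sprayed to run-off with test suspension, inoculated next day with A. solani spores, held saturated at 27° C. for 48 h, then 20° C. for 3 days. Disease visually rated as % control relative to untreated controls.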

Row | Structure (SMILES) | Test B disease control rating ([1]; 50 ppm) [%] | Test A disease control rating ([2]; 50 ppm) [%] | Test E disease control rating ([3]; 50 ppm) [%] | Test D disease control rating ([4]; 50 ppm) [%] | Test C disease control rating ([5]; 50 ppm) [%] | Test F disease control rating ([6]; 50 ppm) [%] | also measured
1 | COc1cc(F)cc(-c2nn(C)c(=O)c(Cl)c2-c2ccc(F)cc2Cl)c1Br [Compound 158] | 100 | 100 | 99 | 100 | 100 | 99 | –
2 | COc1c(-c2ccc(F)cc2Cl)c(-c2ccc(F)cc2Br)nn(C)c1=O [Compound 162] | 89 | 100 | 99 | 13 | 98 | 16 | –
3 | COc1c(-c2ccc(F)cc2Cl)c(-c2cccc(Cl)c2Cl)nn(C)c1=O [Compound 108] | 100 | 100 | 98 | 70 | 100 | 99 | –
4 | CCn1nc(-c2ccc(F)cc2Cl)c(-c2ccc(F)cc2Cl)cc1=O [Compound 11] | – | – | – | – | – | – | Test B disease control rating ([1]; 250 ppm): 9%; Test A disease control rating ([2]; 250 ppm): 2%; Test E disease control rating ([3]; 250 ppm): 87%; Test D disease control rating ([4]; 250 ppm): 0%; Test C disease control rating ([5]; 250 ppm): 64%; Test F disease control rating ([6]; 250 ppm): 0%
5 | CCn1nc(-c2cc(OC)cc(OC)c2)c(-c2c(F)cccc2F)c(Br)c1=O [Compound 15] | 41 | 78 | 68 | 0 | 13 | 0 | –
6 | COc1cc(F)cc(-c2nn(C)c(=O)c(Cl)c2-c2ccc(F)cc2Cl)c1 [Compound 76] | 100 | 100 | 97 | 99 | 99 | 99 | –
7 | CCn1nc(-c2c(F)cccc2F)c(-c2cc(OC)cc(OC)c2)c(Cl)c1=O [Compound 10, 4-chloro-6-(2,6-difluorophenyl)-5-(3,5-dimethoxyphenyl)-2-ethyl-3(2H)-pyridazinone] | – | – | – | – | – | – | pest or weed control at 250 ppm ([1]; 250 ppm): 0%; pest or weed control at 250 ppm ([2]; 250 ppm): 0%; pest or weed control at 250 ppm ([3]; 250 ppm): 0%; pest or weed control at 250 ppm ([4]; 250 ppm): 0%; pest or weed control at 250 ppm ([5]; 250 ppm): 0%; pest or weed control at 250 ppm ([6]; 250 ppm): 0%
8 | COc1cc(OC)c(Cl)c(-c2nn(C)c(=O)c(C)c2-c2ccc(F)cc2Cl)c1Cl [Compound 47] | 68 | 52 | 91 | 0 | 43 | 0 | –
9 | COc1cc(F)c(Br)c(-c2nn(C)c(=O)c(OC)c2-c2ccc(F)cc2Cl)c1 [Compound 165] | 100 | 100 | 95 | 92 | 99 | 100 | –
10 | COc1cc(OC)c(Br)c(-c2nn(C)c(=O)c(C)c2-c2ccc(F)cc2Cl)c1 [Compound 64, 6-(2-bromo-3,5-dimethoxyphenyl)-5-(2-chloro-4-fluorophenyl)-2,4-dimethyl-3(2H)-pyridazinone] | – | – | – | – | – | – | pest or weed control at 50 ppm ([1]; 50 ppm): 100%; pest or weed control at 50 ppm ([2]; 50 ppm): 100%; pest or weed control at 50 ppm ([3]; 50 ppm): 100%; pest or weed control at 50 ppm ([4]; 50 ppm): 100%; pest or weed control at 50 ppm ([5]; 50 ppm): 100%; pest or weed control at 50 ppm ([6]; 50 ppm): 100%
11 | COc1cc(OC)c(F)c(-c2nn(C)c(=O)c(Cl)c2-c2ccc(F)cc2Cl)c1 [Compound 155] | 100 | 99 | 100 | 100 | 100 | 100 | –
12 | COc1cc(OC)c(Br)c(-c2nn(C)c(=O)c(Cl)c2-c2ccc(F)cc2Cl)c1 [Compound 77, 6-(2-bromo-3,5-dimethoxyphenyl)-4-chloro-5-(2-chloro-4-fluorophenyl)-2-methyl-3(2H)-pyridazinone] | – | – | – | – | – | – | pest or weed control at 50 ppm ([1]; 50 ppm): 100%; pest or weed control at 50 ppm ([2]; 50 ppm): 100%; pest or weed control at 50 ppm ([3]; 50 ppm): 97%; pest or weed control at 50 ppm ([4]; 50 ppm): 100%; pest or weed control at 50 ppm ([5]; 50 ppm): 99%; pest or weed control at 50 ppm ([6]; 50 ppm): 100%
13 | CCc1c(-c2c(F)cccc2F)c(-c2c(F)cccc2F)nn(C)c1=O [Compound 46] | 98 | 99 | 88 | 0 | 95 | 99 | –
